The subject of one assay is FGF7 and VEGF. Put plainly: Gene expression with POs-Ca (R) combined with general hair-restoration components (Example 8). Type of assay: cell-based, human. The conditions noted are these: 0.25% POs-Ca (R) with 0.25% glycyrrhizinate dipotassium, 1% tocopherol acetate, 0.125% pantothenyl ethyl ether or 1% Swertia japonica; two wells. The procedure:
(1) Glycyrrhizinate dipotassium (for biochemical use) from Wako Pure Chemical Industries, Ltd. was diluted to 20% (w/v) with water, and sterilized by being passed through a 0.20-μm filter (Minisart, surfactant-free cellulose acetate, Sartorius Stedim Biotech, US) with a 10-ml syringe (Terumo Corporation), and the resulting product was diluted with sterilized water, as required, and used.
(2) (±)-α-Tocopherol acetate (first grade) from Wako Pure Chemical Industries, Ltd., as tocopherol acetate, and DL-pantothenyl ethyl ether from Santa Cruz Biotechnology, as pantothenyl ethyl ether, were each diluted 5-fold to 20% (v/v) with ethanol, and diluted with sterilized water, as required, and used.
(3) A water-ethanol solution of Swertia japonica extract from Senken Co., Ltd., as a 100% (v/v) extract, was diluted with sterilized water, as required, and used.
(1) 500 μl of a special medium in which 2×10^4 cells/ml of follicle dermal papilla cells were suspended was dispensed into a type I collagen-coated 24-well cell culture plate (Corning), and cultured at a cell density of 5×10^3 cells/cm^2 at 37° C. for 96 hours, until the cells reached subconfluent. […]
(3) Two wells were used for culturing each of the DMEM solutions containing (a) to (i). The expression levels of FGF7 and VEGF were analyzed as in (3) to (8) of Example 3, and the average values of the two wells were compared.

Assay [1] deals with FGF-7. Description: Expression rate of FGF-7 among acidic saccharide salts, quantitative PCR (Example 6). Type of assay: cell-based, human. The conditions noted are these: Example 6: solutions (b)-(h) of b288 mixed 1:9 with DMEM, GAPDH reference, mean of 4 PCR assays. How it is done: (§1) (1) 500 μl of a special medium in which 2×10^4 cells/ml of follicle dermal papilla cells were suspended was dispensed into a type I collagen-coated 24-well cell culture plate (Corning), and cultured at a cell density of 5×10^3 cells/cm^2 at 37° C. for 72 hours. […] Oji Cornstarch Co., Ltd.), (f) a 2.5% (w/v) aqueous solution of a phosphorylated oligosaccharide magnesium salt (POs-Mg; […] (3) Each of the solutions (a) to (c) was mixed with DMEM high glucose (Sigma, USA) at a ratio of 1:9. (4) Following the procedures (4) to (6) in Example 2, mRNA was extracted from the cells, cDNA was prepared, and then the expression levels of the VEGF, FGF-7, and GAPDH genes were quantified by quantitative PCR. (7) Using GAPDH as a reference gene, a comparative analysis of expression levels was performed with the analysis software (Bio-Rad CFX Manager 3.0) included in CFX96Touch. The expression levels were calculated under the default conditions of the software.

For assay [2], the system named is human follicle dermal papilla cells. Description: Follicle dermal papilla cell proliferation, Cell Counting Kit-F cell count (Example 2). Type of assay: cell-based. How it is done: A strain (Lot. 3092504.12) sold by PromoCell (Germany) was used as human follicle dermal papilla cells. The cells were cultured in a CO2 incubator at 37° C., using a special medium for follicle dermal papilla cells (PromoCell), unless otherwise indicated. Cell subculturing was performed as follows: cells were seeded at 5000 to 10000 cells/cm^2 in an uncoated dish, and when the cells reached subconfluent, they were treated with trypsin-EDTA (0.03%) and detached, and then re-seeded. […] The medium was replaced about once every 3 days.
1. The procedures (1) and (3) to (5) in Example 1 were performed in the same manner as described above. Solutions of the compositions shown in the following table were prepared in a concentration series starting from a 10% (w/v) aqueous solution of POs-Ca (R), a 12.9% (w/v) aqueous solution of G1P-Ca, a 1.84% (w/v) aqueous solution of CaCl2.2H2O, or a 10% (w/v) aqueous solution of POs-Na.
2. In place of the conditions ((6), (7) and (8)) in Example 1, Cell Counting Kit-F (Dojindo Molecular Technologies, Inc.) was added to each well in accordance with the manual, and the number of cells was counted.
Background: Tetrazolium dyes change colour on reduction, which living cells bring about.

Assay [3] deals with VEGF. Put plainly: Expression rate of VEGF among acidic saccharide salts, quantitative PCR (Example 6). The conditions noted are these: Example 6: solutions (b)-(h) of b288 mixed 1:9 with DMEM, GAPDH reference, mean of 4 PCR assays. Format: cell-based, human. How it is done:
as §1

Assay [4] concerns VEGF. Description: Quantitative PCR gene expression in follicle dermal papilla cells: VEGF. Format: cell-based, human. The conditions noted are these: Example 5: 0.25% POs-Ca (R), 50 μM adenosine or both; DMEM serum-free, 37° C., 5 hours; Dunnett p<0.05, n=8.
The test system of a further assay is Wnt5a. Description: Quantitative PCR gene expression in follicle dermal papilla cells: Wnt5a. Type of assay: cell-based, human. The conditions noted are these: 37° C., 5 hours. The procedure: (§2) (1) 500 μl of a special medium in which 4×10^4 cells/ml of follicle dermal papilla cells were suspended was dispensed into a type I collagen-coated 24-well cell culture plate (Corning), and cultured at a cell density of 1.0×10^4 cells/cm^2 at 37° C. for 42 hours. […] Each of the solutions (a) to (c) was mixed with DMEM high glucose (Sigma, USA) at a ratio of 1:9.
(§3) (3) The medium was aspirated from each well obtained in (1), the well was washed by adding 1 ml of 1×PBS (137 mM NaCl, 8.1 mM Na2HPO4, 2.68 mM KCl, 1.47 mM KH2PO4 (pH 7.4); Wako Pure Chemical Industries, Ltd.), and aspirating the PBS, 500 μl of DMEM high glucose was added, and the cells were incubated in a CO2 incubator at 37° C. for 5 hours. […]
(4) The medium was removed from each well, and then mRNA was extracted using CellAmp Direct RNA Prep Kit for RT-PCR (Takara). The method was performed in accordance with the manual for the kit.
(5) 8 μl of the extracted mRNA solution (200 μl for each well) was used, and cDNA was obtained by the reverse transcription reaction at a scale of 40 μl, using PrimeScript RT Master Mix (Takara). The reaction conditions were as set forth in the manual for the kit.
(6) 0.5 μl of each of cDNA solutions diluted 2-fold with water, 1 μl of a solution containing 4 μM of each of primers 1 and 2 for each of the genes shown in Table 2, 5 μl of SYBR Premix Ex Taq II (Takara), and 3.5 μl of water were added, and quantitative PCR was performed on each of the genes. Using CFX96 Touch (BIO-RAD, USA), denaturation treatment at 95° C. for 30 seconds was performed, and then a two-step cycle at 95° C. for 5 seconds and at 62° C. for 20 seconds was performed for 65 cycles. Fluorescence intensity after each cycle was measured.
(§4) (7) Using PGK1 and GAPDH as reference genes, a comparative analysis of expression levels was performed with the analysis software (Bio-Rad CFX Manager 3.0) included in CFX96Touch. Relative expression levels were calculated under the default conditions of the software. […]

In assay [5] the test system is FGF-7. Put plainly: Quantitative PCR gene expression in follicle dermal papilla cells: FGF-7. Type of assay: cell-based, human. The conditions noted are these: 37° C., 5 hours. The procedure:
as §2, §3
(6) 0.5 μl of each of cDNA solutions diluted 2-fold with water, 1 μl of a solution containing 4 μM of each of primers 1 and 2 for each of the genes shown in Table 2, 5 μl of SYBR Premix Ex Taq II (Takara), and 3.5 μl of water were added, and quantitative PCR was performed on each of the genes. […] Fluorescence intensity after each cycle was measured.
as §4

Setting [6] is: Example 5: 0.25% POs-Ca (R), 50 μM adenosine or both, DMEM serum-free, Dunnett p<0.05, n=8.
The mark [7] stands for this setting: Example 7: 0.25% POs-Mg or MgCl2.6H2O with equivalent magnesium, DMEM, Dunnett p<0.05.

Counter-ions that a name gives are not always drawn.

Take `CC(=O)Oc1c(C)c(C)c2c(c1C)CCC(C)(CCC[C@H](C)CCC[C@H](C)CCCC(C)C)O2` (mixture of isomers) [tocopherol acetate, (±)-α-Tocopherol acetate]: the “synergistic effect with POs-Ca (R) on expression of FGF7 and VEGF” value with FGF7 and VEGF is “None”.
`O=P(O)(O)OC1O[C@H](CO)[C@@H](O)[C@H](O)[C@H]1O` (some centres unmarked) [G1P-Ca, glucose-1-phosphate calcium salt]: the “FGF7, relative values of the expression levels based on the control as 1” value in the assay on FGF-7 [1] (calcium salt) is “induced an increase”; with FGF-7 [1] (listed as G1P—Ca, calcium salt), 1.10. Further, in assay [2] (FIG. 1B-1D legends, Dunnett p<0.05), the “working concentrations having the effect of proliferating follicle dermal papilla cells” value is listed as “over 0.3%”. For the same compound, in assay [2] (concentration series of Table 1A, 3 days), the “number of cells compared to that without addition” value is reported as “increased at all concentrations”. Also, the “VEGF, relative values of the expression levels based on the control as 1” value with VEGF [3] (calcium salt) is given as “induced an increase”; in the assay on VEGF [3] (listed as G1P—Ca, calcium salt) it was 1.46.
Consider `O=C([O-])[C@H](O)[C@@H](O)[C@H](O[C@@H]1O[C@H](CO)[C@H](O)[C@H](O)[C@H]1O)[C@H](O)CO.O=C([O-])[C@H](O)[C@@H](O)[C@H](O[C@@H]1O[C@H](CO)[C@H](O)[C@H](O)[C@H]1O)[C@H](O)CO.[Ca+2]` [Lactobio-Ca, calcium lactobionate], for which the “FGF7, relative values of the expression levels based on the control as 1” value in the assay on FGF-7 [1] was 1.35; with FGF-7 [1] (listed as calcium lactobionate), “induced an increase”. Further, the entries for the “VEGF, relative values of the expression levels based on the control as 1” value with VEGF [3] and with VEGF [3] (listed as calcium lactobionate) were 1.48 and “induced an increase”, respectively.
On to `Nc1ncnc2c1ncn2[C@@H]1O[C@H](CO)[C@@H](O)[C@H]1O` [adenosine], for which the “expression of VEGF compared to without treatment” value in the assay with VEGF [4] was “significant difference”. Further, the “expression of WNTSA (Wnt5a) compared to without treatment” value with Wnt5a (setting [6]) is given as “significant difference”. Further, the “expression of FGF7 compared to without treatment” value in the assay on FGF-7 [5] (setting [6]) is given as “significant difference”.
On to `CC1(C)[C@@H](O[C@H]2O[C@H](C(=O)O)[C@@H](O)[C@H](O)[C@H]2O[C@@H]2O[C@H](C(=O)O)[C@@H](O)[C@H](O)[C@H]2O)CC[C@]2(C)[C@H]3C(=O)C=C4[C@@H]5C[C@@](C)(C(=O)O)CC[C@]5(C)CC[C@@]4(C)[C@]3(C)CC[C@@H]12` [glycyrrhizinate dipotassium, Glycyrrhizinate dipotassium], for which the “synergistic effect with POs-Ca (R) on expression of FGF7 and VEGF” value in the assay with FGF7 and VEGF was “None”.
For “magnesium chloride hexahydrate [general magnesium]”, the “expression of WNTSA” value in the assay on Wnt5a (setting [7]) is listed as “not observed”. In the assay with FGF-7 [5] (setting [7]), the “expression of FGF7” value is “not observed”.

These data come from patent US10543159B2, “Hair papilla cell activator” (Ezaki Glico Co., Ltd., priority 2014, dated 2020).
